# Results published in patent publication US20260258077A1, “PROTEIN FOLDING AGENT, COMPOUND, PROTEIN FOLDING METHOD, PHARMACEUTICAL COMPOSITION, AND AGENT FOR SUPPRESSING CYTOTOXICITY BY TRANSITION METAL” (National University Corporation Tokyo University of …, priority 2023, published 2026).
# What was measured:
# HeLa cells = assay: Suppressive effect on cytotoxicity of Cu(II) ions (Cell Counting Kit-8); type: cell-based; settings: 100 μM Cu(II); single oxidized agent added four hours later; read 24 hours after CuCl2 (FIG. 15)
# Experimental: HeLa cells were seeded in a 96-well plate at 5,000 cells/well and cultured at 37° C. in a 5% CO2 environment for 24 hours. Subsequently, a CuCl2 aqueous solution was added thereto to obtain 100 μM Cu(II). Four hours later, a mixed solution (10:1) of a certain amount of the compound (A-1-1-1) and the compound (B-1-1-1), or a mixed solution (10:1) of oxidized glutathione (GSSG) and reduced glutathione (GSH) was added. 24 hours after the addition of CuCl2, a Cell Counting Kit-8 solution was added thereto. Two hours later, an absorbance at 450 nm was measured to estimate the cell viability.
# HeLa cells were seeded in a 96-well plate at 5,000 cells/well and cultured at 37° C. in a 5% CO2 environment for 24 hours. Subsequently, a CuCl2 aqueous solution was added thereto to obtain 100 μM Cu(II). Four hours later, a certain amount of the compound (B-1-1-1) solution or oxidized glutathione (GSSG) solution was added thereto. 24 hours after the addition of CuCl2, a Cell Counting Kit-8 solution was added thereto. Two hours later, the absorbance at 450 nm was measured to estimate the cell viability.
# [1] = biological target: T1, reduced and denatured Bovine Pancreatic Trypsin Inhibitor (BPTI) (Bos taurus, UniProt P00974); assay: Protein folding test of reduced and denatured BPTI (reverse-phase HPLC); type: biochemical; settings: for formation proportion of native structural BPTI in the presence of Zn(II) ions: 90 μM Zn(II) (ZnSO4), 90 μM (B-1-2-1) or 900 μM GSSG alone, 1 hour (FIG. 25)
# T1 construct: purchased Pro-Spec-Tany TechnoGene Ltd. (Rehovot, Israel)
# Experimental: Bovine Pancreatic Trypsin Inhibitor (BPTI) having three disulfide bonds in the molecule was used as a model protein for analyzing a folding process.
# BPTI (10 mg) was dissolved in 0.1 M Tris-HCl (pH: 8.0, 1.0 mL) containing 30 mM 1,4-dithiothreitol and 8 M urea, incubated at 50° C. for 3 hours, and purified by reverse-phase HPLC. HPLC purification was carried out using a PU-4180 pump and a UV-4075 detector manufactured by JASCO Corporation (Tokyo, Japan), and an InertSustain C18 column (4.6 mm×250 mm) manufactured by GL Sciences Inc. (Tokyo, Japan) at a flow rate of 1.0 mL·min^−1. The collected fractions were freeze-dried, and the obtained powder was stored at −30° C.
# For analysis of the folding process by reverse-phase HPLC, Primaide HPLC system manufactured by Hitachi High-Tech Corporation (Tokyo, Japan) and TSKgel Protein C4-300 column (§ 4.6×150 mm) manufactured by Tosoh Corporation (Tokyo, Japan) were used. […]
# In the presence of 200 μM of the compound (B-1-1-1) and 1.0 mM of the compound (A-1-1-1), reduced and denatured BPTI (30 μM) was dissolved in a Tris-HCl buffer (50 mM Tris-HCl, 300 mM NaCl, pH: 7.5) and incubated at 30° C. Reaction solutions (200 μL) collected at 0 minutes, 1 minute, 5 minutes, 10 minutes, 30 minutes, and 60 minutes after the start of the reaction were mixed with an equivalent amount of 1 M hydrochloric acid, and analyzed by reverse-phase HPLC. Tracing was performed at a flow rate of 1.0 mL·min^−1 and a wavelength of 229 nm, and a linear gradient was applied to the elution solvent ratio during measurement (solvent A: water containing 0.05% TFA, solvent B: acetonitrile containing 0.05% TFA; the amount of solvent A: 95% at 0 minutes, 80% at 15 minutes, 65% at 45 minutes). […]
# In the presence of 200 μM oxidized glutathione (GSSG) and 1.0 mM reduced glutathione (GSH), or in the presence of 200 μM of the compound (B-1-1-1) and 1.0 mM of the compound (A-1-1-1), ZnSO4 and reduced and denatured BPTI (30 μM) were dissolved in a Tris-HCl buffer (50 mM Tris-HCl, 300 mM NaCl, pH: 7.5) and incubated at 30° C. The reaction solution (200 μL) 1 hour after the start of the reaction was mixed with an equivalent amount of 1 M hydrochloric acid and analyzed by reverse-phase HPLC. Tracing was performed at a flow rate of 1.0 mL·min^−1 and a wavelength of 229 nm, and a linear gradient was applied to the elution solvent ratio during measurement (solvent A: water containing 0.05% TFA, solvent B: acetonitrile containing 0.05% TFA; the amount of solvent A: 95% at 0 minutes, 80% at 15 minutes, 65% at 45 minutes).
# In the presence of 90 μM of the compound (B-1-2-1) and 900 μM of the compound (A-1-2-1), or in the presence of 90 μM of oxidized glutathione […] and 900 μM of reduced glutathione […], reduced and denatured BPTI (30 μM) was dissolved in a Tris-HCl buffer (50 mM Tris-HCl, 300 mM NaCl, pH: 7.5) and incubated at 30° C. The reaction solution (200 μL) 1 hour after the start of the reaction was mixed with an equivalent amount of 1 M hydrochloric acid and analyzed by reverse-phase HPLC. Tracing was performed at a flow rate of 1.0 mL·min^−1 and a wavelength of 229 nm, and a linear gradient was applied to the elution solvent ratio during measurement (solvent A: water containing 0.05% TFA, solvent B: acetonitrile containing 0.05% TFA; the amount of solvent A: 95% at 0 minutes, 80% at 15 minutes, 65% at 45 minutes).
# In the presence of 90 μM of the compound (B-1-2-1), 90 μM of Zn(II) ion (ZnSO4) and reduced and denatured BPTI (30 μM) were dissolved in a Tris-HCl buffer (50 mM Tris-HCl, 300 mM NaCl, pH: 7.5) and incubated at 30° C. The reaction solution (200 μL) 1 hour after the start of the reaction was mixed with an equivalent amount of 1 M hydrochloric acid and analyzed by reverse-phase HPLC. […]
molecule,measurement,setting,value
C1CNCCNCCCN(CCSSCCN2CCCNCCNCCCNCC2)CCNC1 [compound (B-1-1-1)],improvement of cell viability of HeLa cells exposed to Cu(II) ions,HeLa cells,greatly improved the viability of HeLa cells
C1CNCCN(CCSSCCN2CCNCCNCC2)CCN1 [compound (B-1-2-1)],formation of native structural BPTI in the absence of Zn(II) ions,"[1]; 90 μM (B-1-2-1) alone, Zn(II) 0 μM, 1 hour (FIG. 23)",native structural BPTI was formed even at a Zn(II) ion concentration of 0 μM
same,formation proportion of native structural BPTI with increasing Zn(II) ion concentration,"[1]; 90 μM (B-1-2-1) alone, ZnSO4, 1 hour, 30° C. (FIG. 23)",formation proportion of native structural BPTI increased as the Zn(II) ion concentration increased
same,formation proportion of native structural BPTI in the presence of Zn(II) ions,[1],formation proportion of native structural BPTI was larger in the presence of Zn(II) ions than in the absence of Zn(II) ions
C1CN2CCSSCCN(CCN1)CC2 [compound (B-2-1-1)],protein folding promotion effect of a catalytic amount,"[1]; 6 μM (B-2-1-1), NiCl2 0 μM, BPTI 30 μM (FIG. 31)",had the protein folding promotion effect
same,protein folding promotion effect of a catalytic amount in the presence of Ni(II) ions,"[1]; 6 μM (B-2-1-1), NiCl2 1 μM, BPTI 30 μM (FIG. 32)",significantly improved as compared with the absence of Ni(II) ions
same,protein folding promotion effect of a catalytic amount in the presence of Cu(II) ions,"[1]; 30 μM (B-2-1-1), CuCl2 5 μM, BPTI 30 μM (FIG. 33)",significantly improved as compared with the absence of Cu(II) ions
same,formation proportion of native structural BPTI with increasing Cu(II) ion concentration,"[1]; 90 μM (B-2-1-1), CuCl2, 1 hour (FIG. 29)",formation proportion of native structural BPTI increased as the Cu(II) ion concentration increased
same,formation proportion of native structural BPTI with increasing Ni(II) ion concentration,"[1]; 90 μM (B-2-1-1), NiCl2, 1 hour (FIG. 30)",formation proportion of native structural BPTI increased as the Ni(II) ion concentration increased
same,folding versus theoretical yield of a stoichiometric reaction,"[1]; catalytic amount of (B-2-1-1), presence of Ni(II) ions or Cu(II) ions",enhancement of folding that greatly exceeded the theoretical yield expected for a stoichiometric reaction
same,protein folding promotion effect,"[1]; no metal ion, 90 μM agent, 1 hour, 30° C. (FIG. 28)",protein folding promotion effect comparable to that of GSSG
"oxidized glutathione [GSSG, reference compound]",formation proportion of native structural BPTI in the presence of Zn(II) ions,[1],proteins aggregated and folding hardly proceeded
same,improvement of cell viability of HeLa cells exposed to Cu(II) ions,HeLa cells,had little effect on improving the cell viability of HeLa cells
